Active and inactive are the calls of the source. The calls are words filed in the database; no cut-off is given here.
Legend:
Type in all cases: functional, organism-based
Mus musculus [1] = test: Antiinflammatory activity in […] mouse assessed as inhibition of TPA-induced IL-6 mRNA expression in epidermis at 2 umol administered topically 30 mins prior to TPA challenge for twice weekly over 2 weeks measured 6 hrs post last TPA challenge by qRT-PCR analysis
Mus musculus [2] = test: Antiinflammatory activity in […] mouse assessed as inhibition of TPA-induced IL-1beta mRNA expression in epidermis at 2 umol administered topically 30 mins prior to TPA challenge for twice weekly over 2 weeks measured 6 hrs post last TPA challenge by qRT-PCR analysis
Mus musculus [3] = test: Antiinflammatory activity in […] mouse assessed as inhibition of TPA-induced IL-23 mRNA expression in epidermis at 2 umol administered topically 30 mins prior to TPA challenge for twice weekly over 2 weeks measured 6 hrs post last TPA challenge by qRT-PCR analysis
Mus musculus [4] = test: Antiinflammatory activity in […] mouse assessed as inhibition of TPA-induced IL-1alpha mRNA expression in epidermis at 2 umol administered topically 30 mins prior to TPA challenge for twice weekly over 2 weeks measured 6 hrs post last TPA challenge by qRT-PCR analysis

Row | Compound | inhibition (Mus musculus [1]) | inhibition (Mus musculus [2]) | inhibition (Mus musculus [3]) | inhibition (Mus musculus [4])
1 | CC1(C)CC[C@]2(C(=O)O)CC[C@]3(C)C(=CC[C@@H]4[C@@]5(C)CC[C@H](O)C(C)(C)[C@@H]5CC[C@]43C)[C@@H]2C1 | inactive | inactive | inactive | inactive
2 | C[C@H]1[C@H](C)CC[C@]2(C(=O)O)CC[C@]3(C)C(=CC[C@@H]4[C@@]5(C)C[C@@H](O)[C@H](O)C(C)(C)[C@@H]5CC[C@]43C)[C@H]12 | Active | Active | Active | Active
3 | C[C@H]1[C@H](C)CC[C@]2(C(=O)O)CC[C@]3(C)C(=CC[C@@H]4[C@@]5(C)C[C@@H](O)[C@@H](O)C(C)(C)[C@@H]5CC[C@]43C)[C@H]12 | Active | Active | Active | Active
4 | CC1(C)CC[C@]2(C(=O)O)CC[C@]3(C)C(=CC[C@@H]4[C@@]5(C)C[C@@H](O)[C@@H](O)C(C)(C)[C@@H]5CC[C@]43C)[C@@H]2C1 | inactive | inactive | inactive | inactive
5 | CC1(C)CC[C@]2(C(=O)O)CC[C@]3(C)C(=CC[C@@H]4[C@@]5(C)C[C@@H](O)[C@H](O)C(C)(C)[C@@H]5CC[C@]43C)[C@@H]2C1 | Active | Active | Active | Active
6 | C[C@H]1[C@H](C)CC[C@]2(C(=O)O)CC[C@]3(C)C(=CC[C@@H]4[C@@]5(C)CC[C@H](O)C(C)(C)[C@@H]5CC[C@]43C)[C@H]12 | inactive | inactive | inactive | inactive

— ChEMBL document CHEMBL3616450, “Synthesis of oxygenated oleanolic and ursolic acid derivatives with anti-inflammatory properties” (Bioorg Med Chem Lett, 2015)
